According to patent US20080280920A1, “Plasminogen Activator Inhibitor-1 Inhibitors” (priority 2005, published 2008):

Experiments:
Format in all cases: cell-based, human
OVCAR-8 = assay: NCI anticancer screen, OVCAR-8; details: Homo sapiens; OVCAR-8, Ovarian, 48 h
OVCAR-5 = assay: NCI anticancer screen, OVCAR-5; details: Homo sapiens; OVCAR-5, Ovarian, 48 h
UACC-62 = assay: NCI anticancer screen, UACC-62; details: Homo sapiens; UACC-62, Melanoma, 48 h
M14 = assay: NCI anticancer screen, M14; details: Homo sapiens; M14, Melanoma, 48 h
COLO 205 = assay: NCI anticancer screen, COLO 205; details: Homo sapiens; COLO 205, Colon, 48 h
BT-549 = assay: NCI anticancer screen, BT-549; details: Homo sapiens; BT-549, Breast, 48 h
CAKI-1 = assay: NCI anticancer screen, CAKI-1; details: Homo sapiens; CAKI-1, Renal, 48 h
NCI/ADR-RES = assay: NCI anticancer screen, NCI/ADR-RES; details: Homo sapiens, Breast, 48 h
T-47D = assay: NCI anticancer screen, T-47D; details: Homo sapiens, T47D, Breast, 48 h
A549/ATCC = assay: NCI anticancer screen, A549/ATCC; details: Homo sapiens, Non-Small Cell Lung, 48 h
A498 = assay: NCI anticancer screen, A498; details: Homo sapiens; A498, Renal, 48 h
HCC-2998 = assay: NCI anticancer screen, HCC-2998; details: Homo sapiens; HCC-2998, Colon, 48 h
MALME-3M = assay: NCI anticancer screen, MALME-3M; details: Homo sapiens, Melanoma, 48 h
786-0 = assay: NCI anticancer screen, 786-0; details: Homo sapiens; 786-0, Renal, 48 h
MDA-MB-435 = assay: NCI anticancer screen, MDA-MB-435; details: Homo sapiens; MDA-MB-435, Breast, 48 h
SK-MEL-28 = assay: NCI anticancer screen, SK-MEL-28; details: Homo sapiens; SK-MEL-28, Melanoma, 48 h
SN12C = assay: NCI anticancer screen, SN12C; details: Homo sapiens, 48 h, Renal
SK-OV-3 = assay: NCI anticancer screen, SK-OV-3; details: Homo sapiens; SK-OV-3, Ovarian, 48 h
HCT-116 = assay: NCI anticancer screen, HCT-116; details: Homo sapiens; HCT-116, Colon, 48 h
K-562 = assay: NCI anticancer screen, K-562; details: Homo sapiens, K562; K-562, Leukemia, 48 h
MOLT-4 = assay: NCI anticancer screen, MOLT-4; details: Homo sapiens; MOLT-4, Leukemia, 48 h
HT29 = assay: NCI anticancer screen, HT29; details: Homo sapiens, HT-29; HT29, Colon, 48 h
RXF 393 = assay: NCI anticancer screen, RXF 393; details: Homo sapiens; RXF 393, Renal, 48 h
HS 578T = assay: NCI anticancer screen, HS 578T; details: Homo sapiens, Breast, 48 h
OVCAR-4 = assay: NCI anticancer screen, OVCAR-4; details: Homo sapiens; OVCAR-4, Ovarian, 48 h
SF-539 = assay: NCI anticancer screen, SF-539; details: Homo sapiens; SF-539, CNS, 48 h
SF-268 = assay: NCI anticancer screen, SF-268; details: Homo sapiens; SF-268, CNS, 48 h
NCI-H226 = assay: NCI anticancer screen, NCI-H226; details: Homo sapiens; NCI-H226, Non-Small Cell Lung, 48 h
HCT-15 = assay: NCI anticancer screen, HCT-15; details: Homo sapiens; HCT-15, Colon, 48 h
HL-60(TB) = assay: NCI anticancer screen, HL-60(TB); details: Homo sapiens, Leukemia, 48 h
PC-3 = assay: NCI anticancer screen, PC-3; details: Homo sapiens; PC-3, Prostate, 48 h
SNB-75 = assay: NCI anticancer screen, SNB-75; details: Homo sapiens; SNB-75, CNS, 48 h
MCF7 = assay: NCI anticancer screen, MCF7; details: Homo sapiens; MCF7, Breast, 48 h
SK-MEL-5 = assay: NCI anticancer screen, SK-MEL-5; details: Homo sapiens; SK-MEL-5, Melanoma, 48 h

| Structure (SMILES) | GI50 (OVCAR-8) | GI50 (OVCAR-5) | GI50 (UACC-62) | GI50 (M14) | GI50 (COLO 205) | GI50 (BT-549) | GI50 (CAKI-1) | GI50 (NCI/ADR-RES) | GI50 (T-47D) | GI50 (A549/ATCC) | GI50 (A498) | GI50 (HCC-2998) | GI50 (MALME-3M) | GI50 (786-0) | GI50 (MDA-MB-435) | GI50 (SK-MEL-28) | GI50 (SN12C) | GI50 (SK-OV-3) | GI50 (HCT-116) | GI50 (K-562) | further results |
| --- | --- | --- | --- | --- | --- | --- | --- | --- | --- | --- | --- | --- | --- | --- | --- | --- | --- | --- | --- | --- | --- |
| CC(C)(C)OC(=O)Nc1ccc(O)c(C(=O)NCCOC(=O)NCCNC(=O)c2cc(OCc3ccccc3)ccc2OCc2ccccc2)c1 [Compound Q012052, 2-[5-(BOC-amino)-2-hydroxybenzoylamino]ethyl 2-[2,5-bis-(benzyl-oxy)benzoylamino]ethylcarbamate] | > 100 µM | > 100 µM | > 100 µM | > 100 µM | 8.97 µM | 80.1 µM | 98 µM | > 100 µM | 5.05 µM | 68.8 µM | > 100 µM | > 100 µM | > 100 µM | > 100 µM | > 100 µM | > 100 µM | > 100 µM | > 100 µM | > 100 µM | 14 µM | GI50 (MOLT-4): 4.05 µM; GI50 (HT29): > 100 µM; GI50 (RXF 393): > 100 µM; GI50 (HS 578T): > 100 µM; GI50 (OVCAR-4): 29.1 µM; GI50 (SF-539): > 100 µM; GI50 (SF-268): > 100 µM; GI50 (NCI-H226): > 100 µM; GI50 (HCT-15): > 100 µM; GI50 (HL-60(TB)): > 100 µM; GI50 (PC-3): 24.9 µM; GI50 (SNB-75): 68.9 µM; GI50 (MCF7): 17.1 µM; GI50 (SK-MEL-5): > 100 µM |
| CCOC(=O)[C@H](Cc1ccccc1)NCc1cc(CN2CCN(c3ccccn3)CC2)c(O)c(OC)c1 [Compound Q012147T] | > 100 µM | > 100 µM | > 100 µM | 99 µM | > 100 µM | 67.5 µM | > 100 µM | > 100 µM | 33.5 µM | > 100 µM | > 100 µM | > 100 µM | 99.9 µM | 60.2 µM | 83.2 µM | > 100 µM | > 100 µM | > 100 µM | 34.4 µM | 49.3 µM | GI50 (MOLT-4): 3.13 µM; GI50 (HT29): 43.2 µM; GI50 (RXF 393): 76.5 µM; GI50 (HS 578T): 48.3 µM; GI50 (OVCAR-4): 70.2 µM; GI50 (SF-539): 73.4 µM; GI50 (SF-268): > 100 µM; GI50 (NCI-H226): > 100 µM; GI50 (HCT-15): 98.3 µM; GI50 (HL-60(TB)): 37.5 µM; GI50 (PC-3): 49.8 µM; GI50 (SNB-75): 56.6 µM; GI50 (MCF7): 88.8 µM; GI50 (SK-MEL-5): 18.7 µM |
| COc1cc(CNc2ccc(C(=O)OC(C)(C)C)cc2)cc(CN2CCN(c3ccccn3)CC2)c1O [Compound Q012145T] | > 100 µM | > 100 µM | 74.5 µM | 83.3 µM | 24.8 µM | 52.9 µM | > 100 µM | 41.1 µM | 13.1 µM | 84.3 µM | 16.2 µM | > 100 µM | 34.6 µM | 48.6 µM | 60.1 µM | > 100 µM | > 100 µM | > 100 µM | 15.2 µM | 10.2 µM | GI50 (MOLT-4): 13 µM; GI50 (HT29): 12.7 µM; GI50 (RXF 393): 80.3 µM; GI50 (HS 578T): > 100 µM; GI50 (OVCAR-4): 46.9 µM; GI50 (SF-539): > 100 µM; GI50 (SF-268): 61.5 µM; GI50 (NCI-H226): > 100 µM; GI50 (HCT-15): 46.4 µM; GI50 (HL-60(TB)): 12.4 µM; GI50 (PC-3): 23.5 µM; GI50 (SNB-75): > 100 µM; GI50 (MCF7): 21 µM; GI50 (SK-MEL-5): 10.7 µM |
